# Measured values: PubChem BioAssay AID312 (DTP/NCI, 2004)
# Where “and” joins values, the source holds several entries; their conditions need not be identical. Equal values may be shown once. Toxic doses and inconclusive results are not listed.
# Tested on: BDF1 mice, C1498 leukemia ip, median survival T/C
# Experiment: NCI In Vivo Anticancer Drug Screen. Data for tumor model C1498 Myeloid Leukemia (intraperitoneal) in B6D2F1 (BDF1) mice
# Settings: endpoint: median survival time, vehicle: saline, higher = longer survival
# Procedure: The antitumor activity of compounds was measured in mice bearing transplantable tumors. Survival or tumor size were measured and the results are expressed as the measurement made in the treated group (T) divided by the measurement made in the vehicle treated control group (C). The tumor model used in this assay is C1498 Myeloid Leukemia (intraperitoneal) in B6D2F1 (BDF1) mice
# [1] = dose: 31.3 mg/kg/injection, schedule: Q01DX010 (ip)
# [2] = dose: 62.5 mg/kg/injection, schedule: Q01DX010 (ip)
# [3] = dose: 125.0 mg/kg/injection, schedule: Q01DX010 (ip)
# [4] = dose: 5.0 mg/kg/injection, schedule: Q01DX010 (ip)
# [5] = dose: 10.0 mg/kg/injection, schedule: Q01DX010 (ip)
# [6] = dose: 20.0 mg/kg/injection, schedule: Q01DX010 (ip)
# [7] = dose: 40.0 mg/kg/injection, schedule: Q01DX010 (ip)
# [8] = dose: 25.0 mg/kg/injection, schedule: Q01DX010 (ip)
# [9] = dose: 50.0 mg/kg/injection, schedule: Q01DX010 (ip)
# [10] = dose: 100.0 mg/kg/injection, schedule: Q01DX010 (ip)
smiles,measurement,setting,value
CC[C@]1(O)C[C@H]2CN(CCc3c([nH]c4ccccc34)[C@@](C(=O)OC)(c3cc4c(cc3OC)N(C=O)[C@H]3[C@@](O)(C(=O)OC)[C@H](OC(C)=O)[C@]5(CC)C=CCN6CC[C@]43[C@@H]65)C2)C1,T/C,"dose: 1.0 mg/kg/injection, schedule: Q04DX003 (ip)",112 % of control
same,T/C,"dose: 1.5 mg/kg/injection, schedule: Q04DX003 (ip)",115 % of control
same,T/C,"dose: 2.0 mg/kg/injection, schedule: Q04DX003 (ip)",118 % of control
CCCSc1ncnc2nc[nH]c12,T/C,[1],100 % of control and 104 % of control
same,T/C,[2],100 % of control and 109 % of control
same,T/C,[3],104 % of control and 90 % of control
O=P1(N(CCCl)CCCl)NCCCO1 (stereo not given),T/C,"dose: 200.0 mg/kg/injection, schedule: Q01DX001 (ip)",162 % of control and 207 % of control
same,T/C,"dose: 300.0 mg/kg/injection, schedule: Q01DX001 (ip)",171 % of control and 241 % of control
Nc1c(Br)cc2c(c1Br)Cc1cc([N+](=O)[O-])ccc1-2,T/C,[1],91 % of control
same,T/C,[2],91 % of control and 100 % of control
same,T/C,[3],91 % of control
same,T/C,"dose: 250.0 mg/kg/injection, schedule: Q01DX010 (ip)",91 % of control and 95 % of control
same,T/C,"dose: 500.0 mg/kg/injection, schedule: Q01DX010 (ip)",95 % of control
CC(=O)NC1=C(N2CC2)C(=O)C(NC(C)=O)=C(N2CC2)C1=O,T/C,"dose: 0.13 mg/kg/injection, schedule: Q01DX010 (ip)",108 % of control
same,T/C,"dose: 125.0 micrograms/kg/injection, schedule: Q01DX010 (ip)",104 % of control
same,T/C,"dose: 250.0 micrograms/kg/injection, schedule: Q01DX010 (ip)",109 % of control and 116 % of control
COc1cc(-c2ccc(Nc3ccccc3C(=O)O)c(OC)c2)ccc1N,T/C,[4],100 % of control
same,T/C,[5],95 % of control and 100 % of control
same,T/C,[6],100 % of control and 105 % of control
same,T/C,[7],118 % of control
CSc1ncnc2nc[nH]c12,T/C,"dose: 12.5 mg/kg/injection, schedule: Q01DX010 (ip)",100 % of control
same,T/C,[8],95 % of control
same,T/C,[9],100 % of control
same,T/C,[10],100 % of control
CN(C)c1ccc(/C=C/c2ccnc3ccccc23)cc1,T/C,[4],100 % of control
same,T/C,[5],100 % of control and 104 % of control
same,T/C,[6],95 % of control and 100 % of control
same,T/C,[7],95 % of control and 109 % of control
N#CCSc1ncnc2nc[nH]c12,T/C,"dose: 30.0 mg/kg/injection, schedule: Q01DX010 (ip)",105 % of control
same,T/C,"dose: 60.0 mg/kg/injection, schedule: Q01DX010 (ip)",110 % of control
CN(C)c1ccc(Nc2c3ccccc3nc3ccccc23)cc1,T/C,"dose: 36.0 mg/kg/injection, schedule: Q01DX010 (ip)",118 % of control
same,T/C,"dose: 120.0 mg/kg/injection, schedule: Q01DX010 (ip)",86 % of control
COc1cc(-c2ccc(Nc3ccccc3C(=O)O)c(OC)c2)ccc1Nc1ccccc1C(=O)O,T/C,[8],112 % of control
same,T/C,[9],104 % of control
same,T/C,[10],100 % of control
